For two compounds, IC50 and half-life results are on record in article PMC8224453, “A New PqsR Inverse Agonist Potentiates Tobramycin Efficacy to Eradicate Pseudomonas aeruginosa Biofilms” (Advanced Science, 2021).

The test system of series [1] is pyocyanin production in PA14 wt. Description: Pyocyanin assay in PA14 wt. Type of series: cell-based. The note with it: Pseudomonas aeruginosa, PA14, read-out: IC50 pyocyanin. How it is done: The pyocyanin inhibitory effect of the synthesized compounds and the compound (4) loaded SqNPs on PA14 wt were investigated by pyocyanin assay as described in previous work.[2,5] Briefly, PA14 wt was grown in PPGAS medium, overnight, at 37 °C, shaking at 200 rpm. The bacterial suspension was then centrifuged at 7.450 g, washed twice and diluted to a final OD600 (absorption at 600 nm) of 0.02 (2∙10^7 CFU/mL) in fresh PPGAS. 1.5 mL of the […]
(1 picture or pasted object on this page, not shown here) […]
culture was distributed in each well of the 24 well-plate. The free synthesized QSI prepared in DMSO, compound (4) loaded SqNPs were supplemented to bacteria-containing wells (1:100 dilutions). PA14 wt treated with either PBS or drug-free SqNPs (200 μg/mL) served as controls. Following 16 h incubation under aerobic conditions, pyocyanin in 900 μL of bacteria culture was extracted with chloroform and re-extracted with 0.2 M HCl. Pyocyanin production level was measured as the absorption at 520 nm, which was normalized to cell growth measured as OD600. 0.2 M HCl served as blank samples. Three independent experiments were conducted in triplicate. Non-linear regression analysis was performed using […]
(4) loaded SqNPs on PA14 wt. The pyocyanin inhibitory efficacy was improved by a factor of […]
It is noted that as reported in our prior
Figure S2. The production of pyocyanin levels compared to control PA14 wide type (wt) of the samples treated with 200 μg/mL drug free SqNPs. Three independent experiments were conducted in triplicate. […]
(also on this page, place not known: ( 4) -containing -free bacteria re -extracted compo und ( 4) (IC 50 nM ) (IC 50 nM ). drug P A14 5,6,7,8 -tetradeutero-2-heptyl-4(1H)-quinolone standa rd -40 -20 0 20 40 60 80 100 120 0.005 0.05 0.5 pyo production inhibition [%] Compound concentration loaded SqNPs [µM] IC50 = 100 ± 0.018 [nM])

Series [2] in a line: Metabolic stability half-life (matrix not given). It is filed as in vitro ADME. The note with it: matrix not stated; read-out: metabolic stability half-life t 1/2. How it is done: First, we evaluated the most promising compounds considering in vitro pharmacokinetic properties such as solubility and metabolic stability. […] Compounds 4 and 19 were moderately stable with half‐lives of 10 and 19 min, respectively.

A short description of series [3]: Metabolic stability, mouse liver S9. Type of series: in vitro ADME. How it is done:
(§1) For the evaluation of combined phase I and phase II metabolic stability, the compound (1 μM) was incubated with 1 mg/mL pooled liver S9 fraction from the respective species (Xenotech), […]
(§2) 2 mM NADPH, 1 mM UDPGA, 10 mM MgCl2, 5 mM GSH and 0.1 mM PAPS at 37 °C for […]
(§3) 0, 5, 15, 30 or 60 min. The metabolic stability of Testosterone (1 μM) and verapamil (1 μM) […]
(§4) were determined in parallel to confirm the enzymatic activity of the S9 fraction. The […]
(§5) incubation was stopped by precipitation of S9 enzymes with 2 volumes of cold acetonitrile […]
(§6) containing internal standard (750 nM Diphenhydramine). Samples were stored on ice for 10 […]
(§7) min and precipitated protein was removed by centrifugation (10 min, 4 °C, 17,000 g).
(§8) Concentration of the remaining test compound at the different time points was analyzed by […]
(§9) LC-MS/MS (TSQ Quantum Access MAX, Thermo Fisher, Dreieich, Germany) and used to […]
(§10) determine half-life (t1/2). Stability of compound 4 in further S9 fractions are summarized in […]
(§11) Table S4. Metabolic stability studies in various S9 fractions. […]

The nature of series [4]: Metabolic stability, dog liver S9. It is filed as in vitro ADME. The note with it: pooled liver S9 fraction, Table S4, read-out: t1/2 dog liver S9. How it is done: as §1, §2, §3, §4, §5, §6, §7, §8, §9, §10, §11
[5] abbreviates: pooled mouse liver S9 fraction, Table 2, read-out: Metabolic stability t 1/2 S9 mouse.

On to `COc1ccc(-n2cc(CNc3ccnc(C(F)(F)F)c3)nn2)cc1Cl` [Compound 17], for which the IC50 (commonly the concentration needed to halve the response being measured) in series [1] amounted to 0.35 µM. In series [2], the half-life was 3 min. Further, the half-life at 1 μM in series [3] (setting [5]) stood at 11 min.
Regarding `FC(F)(F)c1cc(NCc2cn(-c3ccc(Oc4ccccc4)cc3)nn2)ccn1` [Compound 4], the IC50 in series [1] is 0.199 µM. Moreover, the half-life at 1 μM in series [4] was found to be 72.2 ± 7.6 min; in series [3] (pooled liver S9 fraction, Table S4, read-out: t1/2 mouse liver S9), 19.9 ± 7.5 min; in series [3] (setting [5]), 29 min. In addition, the half-life in series [2] was 10 min.
